According to patent publication US5464861A, “2-thioindoles (selenoindoles) and related disulfides (selenides) which inhibit protein tyrosine kinases and which have antitumor properties” (Warner-Lambert, priority 1993, dated 1995):
Like-named read-outs stand apart in the source and are kept apart here.

Experiments:
[1] = molecular target: T1, epidermal growth factor receptor tyrosine kinase (Homo sapiens, UniProt P00533); experiment: EGF receptor tyrosine kinase assay (P^32 incorporation in GAT); type: biochemical; settings: for inhibition at 100 µM: EGRF-R, read-out: % Inhibition at 100 μM (EGFR TK)
T1 construct: A native 170,000 epidermal growth factor receptor-kinase complex from shed plasma membrane vesicles; endogenous in cells
T1 sequence (P00533 25-1210): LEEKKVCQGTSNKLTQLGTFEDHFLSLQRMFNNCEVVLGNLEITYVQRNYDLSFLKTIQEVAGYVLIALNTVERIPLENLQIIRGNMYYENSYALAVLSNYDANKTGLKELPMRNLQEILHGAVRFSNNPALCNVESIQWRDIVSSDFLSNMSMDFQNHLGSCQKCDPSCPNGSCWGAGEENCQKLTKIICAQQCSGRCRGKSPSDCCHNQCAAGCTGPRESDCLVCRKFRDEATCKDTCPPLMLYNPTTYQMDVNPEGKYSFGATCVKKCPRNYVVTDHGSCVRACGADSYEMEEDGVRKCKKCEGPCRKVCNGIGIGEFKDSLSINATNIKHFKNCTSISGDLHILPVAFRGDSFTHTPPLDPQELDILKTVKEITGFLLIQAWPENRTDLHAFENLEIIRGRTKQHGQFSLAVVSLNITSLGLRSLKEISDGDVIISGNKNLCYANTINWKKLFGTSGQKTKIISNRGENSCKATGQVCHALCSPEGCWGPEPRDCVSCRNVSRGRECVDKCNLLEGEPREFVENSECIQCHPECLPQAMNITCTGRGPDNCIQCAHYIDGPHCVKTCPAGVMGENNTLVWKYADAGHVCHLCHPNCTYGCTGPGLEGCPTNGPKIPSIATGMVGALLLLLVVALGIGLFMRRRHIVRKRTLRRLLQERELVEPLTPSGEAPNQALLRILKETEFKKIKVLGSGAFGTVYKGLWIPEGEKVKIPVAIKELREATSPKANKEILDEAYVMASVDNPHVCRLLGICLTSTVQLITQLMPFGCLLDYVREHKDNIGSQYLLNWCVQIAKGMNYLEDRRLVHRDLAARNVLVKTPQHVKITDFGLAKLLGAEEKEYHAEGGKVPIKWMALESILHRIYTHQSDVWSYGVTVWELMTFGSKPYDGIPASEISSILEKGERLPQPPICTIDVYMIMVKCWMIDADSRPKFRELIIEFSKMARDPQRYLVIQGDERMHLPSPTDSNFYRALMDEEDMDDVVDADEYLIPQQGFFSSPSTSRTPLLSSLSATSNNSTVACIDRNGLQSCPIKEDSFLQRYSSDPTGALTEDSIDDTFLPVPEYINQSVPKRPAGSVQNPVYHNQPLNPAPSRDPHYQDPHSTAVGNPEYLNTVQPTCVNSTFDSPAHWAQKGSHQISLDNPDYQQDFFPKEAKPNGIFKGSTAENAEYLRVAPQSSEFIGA
T1 sequence (P01133 971-1023 partner limits assumed): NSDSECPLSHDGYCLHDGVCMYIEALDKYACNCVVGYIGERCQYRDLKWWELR
Procedure: At the time of assay, membranes were solubilized in 4% Triton X-100 and glycerol. The reaction is carried out in wells of a 96-well microtiter plate in a total volume of […]. Buffer containing 20 mMHepes (pH 7.4), 15 mMMgCl2, mM MnCl2, and 0.02% BSA followed by […] of membrane protein and 150 ng of epidermal growth factor. The plates are incubated for 10 minutes at room temperature to activate the receptor kinase. […] ATP plus or minus compound are added and incubated 10 minutes at room temperature.

[2] = molecular target: T2, human PDGF β receptor intracellular tyrosine kinase domain (Homo sapiens, UniProt P09619); experiment: PDGF receptor tyrosine kinase inhibition assay (P^32 incorporation in Glu-Tyr); type: biochemical; settings: for inhibition at 100 µM: read-out: % Inhibition at 100 μM (PDGFR TK)
T2 construct: human PDGF β receptor intracellular tyrosine kinase domain; made in house; host or cells: SF9 insect cells, recombinant baculovirus; cell lysates used
T2 sequence (P09619 554-1106 limits assumed): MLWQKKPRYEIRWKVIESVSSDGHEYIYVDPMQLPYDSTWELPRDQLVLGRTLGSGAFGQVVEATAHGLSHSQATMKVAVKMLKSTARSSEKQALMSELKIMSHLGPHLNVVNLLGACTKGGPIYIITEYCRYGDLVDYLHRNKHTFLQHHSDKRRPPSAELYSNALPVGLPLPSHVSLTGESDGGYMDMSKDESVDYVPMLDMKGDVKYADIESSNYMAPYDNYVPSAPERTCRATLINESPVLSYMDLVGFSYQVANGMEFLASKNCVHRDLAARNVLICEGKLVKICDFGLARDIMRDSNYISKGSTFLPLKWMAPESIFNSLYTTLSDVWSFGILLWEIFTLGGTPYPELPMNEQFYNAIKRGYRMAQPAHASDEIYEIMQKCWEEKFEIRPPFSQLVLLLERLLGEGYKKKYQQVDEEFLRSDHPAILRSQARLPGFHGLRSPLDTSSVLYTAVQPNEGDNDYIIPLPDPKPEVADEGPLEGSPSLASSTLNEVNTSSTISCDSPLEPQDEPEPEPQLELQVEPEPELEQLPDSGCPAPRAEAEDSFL
Procedure: Recombinant baculovirus containing human PDGF β receptor intracellular tyrosine kinase domain was used to infect SF9 cells to overexpress the protein, and cell lysates were used for the assay. The ability of the tyrosine kinase to phosphorylate glutamate tyrosine substrate in the presence of P^32 -ATP and inhibitor was measured by counting the incorporation of P^32 in Glu-Tyr in TCAprecipitable material.

[3] = Table 2, EGRF-R, IC50 entries, read-out: IC50 (EGFR TK)

SMILES | inhibition at 100 µM [1] [%] | IC50 [1, 3] [µM] | also measured
Cn1c(SSc2c(C(=O)Nc3ccccc3)c3ccc(Cl)cc3n2C)c(C(=O)Nc2ccccc2)c2ccc(Cl)cc21 [Compound 85, bis[N-phenyl 6-chloro-1-methylindolyl-3-carboxamide-(2)]disulfide] | 8 |  | inhibition at 100 µM ([2]; at 100 μM, PDGF-R): 7%
O=C(CCc1c(SSc2[nH]c3ccccc3c2CCC(=O)Nc2ccccc2)[nH]c2ccccc12)Nc1ccccc1 [Compound 59] |  | 30.5 | inhibition at 100 µM ([2]; at 100 μM, PDGF-R): 11.4%
Cn1c(SSc2c(C(=O)c3ccccc3)c3ccccc3n2C)c(C(=O)c2ccccc2)c2ccccc21 [Compound 100, bis[3-benzoyl-1-methylindole-(2)]disulfide] |  |  | inhibition at 100 µM [2]: 23%
Cn1c(SSc2c(C(=O)Nc3ccccc3)c3cc([N+](=O)[O-])ccc3n2C)c(C(=O)Nc2ccccc2)c2cc([N+](=O)[O-])ccc21 [Compound 86, 2,2'-dithiobis [N-phenyl-1-methyl-5-nitroindolyl-3-carboxamide]] |  |  | IC50 [1]: 4.9 µM; inhibition at 100 µM [2]: 5%
CN(C)C(=O)c1c(SSc2c(C(=O)N(C)C)c3ccccc3n2C)n(C)c2ccccc12 [Compound 119, 2,2'-dithiobis[N,N-dimethyl-1-methylindolyl-3-carboxamide]] |  | 21.2 | inhibition at 100 µM ([2]; at 100 μM, PDGF-R): 73%
COC(=O)c1ccc(CNC(=O)CCc2c(SSc3[nH]c4ccccc4c3CCC(=O)NCc3ccc(C(=O)OC)c(O)c3)[nH]c3ccccc23)cc1O [Compound 57] | 46 |  | inhibition at 100 µM ([2]; at 100 μM, PDGF-R): 14.5%
COC(=O)CCCc1c(SSc2[nH]c3ccccc3c2CCCC(=O)OC)[nH]c2ccccc12 [Compound 67, bis[methylindolyl-3-butanoate-(2)]-disulfide] | 18 |  | inhibition at 100 µM ([2]; at 100 μM, PDGF-R): 2%
Cn1c(SSc2c(C(=O)Nc3ccccc3)c3cc(C(F)(F)F)ccc3n2C)c(C(=O)Nc2ccccc2)c2cc(C(F)(F)F)ccc21 [Compound 84, 2,2-dithiobis [N-phenyl-1-methyl-5-(trifluoro-methyl)indolyl-3-carboxamide]] | 35 |  | inhibition at 100 µM ([2]; at 100 μM, PDGF-R): 22%
O=C(CCc1c(SSc2[nH]c3ccccc3c2CCC(=O)NCCc2ccccc2)[nH]c2ccccc12)NCCc1ccccc1 [Compound 54, 2,2'-dithiobis[N-(2-phenylethyl) -3-(3-indolyl)propanamide]] |  | 29 | inhibition at 100 µM ([2]; at 100 μM, PDGF-R): 20.6%
COC(=O)c1ccc(CNC(=O)c2c(SSc3c(C(=O)NCc4ccc(C(=O)OC)cc4)c4ccccc4n3C)n(C)c3ccccc23)cc1 [Compound 110, 2,2'-dithiobis [N-(4'-carbomethoxy)benzyl 1-methylindolyl-3-carboxamide]] |  | 13 | 
COC(=O)c1cccc(NC(=O)c2c(SSc3c(C(=O)Nc4cccc(C(=O)OC)c4)c4ccccc4n3C)n(C)c3ccccc23)c1 [Compound 106, 2,2'-dithiobis [N-(3'-carbomethoxy)phenyl-1-methylindolyl-3-carboxamide]] | 34 |  | 
Cc1ccc2c(CCC(=O)O)c(SSc3[nH]c4cc(C)ccc4c3CCC(=O)O)[nH]c2c1 [Compound 43, bis[methylindolyl-3-propanoate-(2)]disulfide] |  | 2.9 | 
Cn1c(SSc2c(C(=O)Nc3cccc(C(=O)O)c3)c3ccccc3n2C)c(C(=O)Nc2cccc(C(=O)O)c2)c2ccccc21 [Compound 107, 2,2'-dithiobis[N-(3-carboxy)phenyl-1-methylindolyl-3-carboxamide]] |  | 12 | 
Cc1cccc2c(C(=O)Nc3ccccc3)c(SSc3c(C(=O)Nc4ccccc4)c4cccc(C)c4n3C)n(C)c12 [Compound 78, bis [N-phenyl 1,7-dimethyl indolyl-3-carboxamide-(2)]disulfide] | 27 |  | inhibition at 100 µM ([2]; at 100 μM, PDGF-R): 7%
CC(=O)NC(Cc1c(SSc2[nH]c3ccccc3c2CC(NC(C)=O)C(=O)NCc2ccccc2)[nH]c2ccccc12)C(=O)NCc1ccccc1 (racemic) [Compound 60] | 53 |  | 
Cn1c(SSc2c(C(=O)Nc3ccccn3)c3ccccc3n2C)c(C(=O)Nc2ccccn2)c2ccccc21 [Compound 122, 2,2'-dithiobis [N-(2'-pyridyl)-1-methylindole-3-carboxamide]] | 51 |  | 
Cn1c(SSc2c(C(N)=O)c3ccccc3n2C)c(C(N)=O)c2ccccc21 [Compound 118, 2,2'-dithiobis[1-methylindolyl-3-carboxamide]] |  | 4.7 | inhibition at 100 µM ([2]; at 100 μM, PDGF-R): 78%
CNC(=O)CCc1c(SSc2[nH]c3ccccc3c2CCC(=O)NC)[nH]c2ccccc12 [Compound 51] |  | 7 | 
CCN(CC)CCn1c([Se][Se]c2c(C(=O)NC)c3ccccc3n2CCN(CC)CC)c(C(=O)NC)c2ccccc21 [Compound 135, 2,2'-diselenobis [1-[2-(diethylamino)ethyl] -N-methyl-1H-indole-3-carboxamide]] |  |  | IC50 ([1]; read-out: IC50 (EGFR TK)): 6.9 µM
COC(=O)c1ccccc1NC(=O)c1c(SSc2c(C(=O)Nc3ccccc3C(=O)OC)c3ccccc3n2C)n(C)c2ccccc12 [Compound 108, 2,2'-dithiobis [N-(2-carbomethoxy)phenyl-1-methylindolyl-3-carboxamide]] | 20 |  | 

SMILES | inhibition at 100 µM [1] [%] | IC50 [1, 3] [µM] | also measured
COC(=O)CC1C(=S)N(C)c2ccccc21 (stereo not drawn) [Compound 4, methyl 2-(1-methyl-2-thioxo-3-indolinyl)acetate] | 27 |  | 
CC(=O)Oc1cccc2c1c(C(=O)Nc1ccccc1)c(SSc1c(C(=O)Nc3ccccc3)c3c(OC(C)=O)cccc3n1C)n2C [Compound 90, 2,2'-dithiobis [N-phenyl 4-acetoxy-1-methylindolyl-3-carboxamide]] |  | 26 | IC50 ([2]; Table 2, PDGF-R, IC50 entries, read-out: IC50 (PDGFR TK)): 36.5 µM
CCOC(=O)CC1C(=S)N(C)c2ccccc21 (stereo not drawn) [Compound 5, ethyl 2-(1-methyl-2-thioxo-3-indolinyl)acetate] | 4 |  | 
CN1C(=S)C(CCCC(=O)O)c2ccccc21 (stereo not drawn) [Compound 16, 4-(1-methyl-2-thioxo-3-indolyl) butanoic acid] |  | 23 | 
Cn1c(SSc2c(CCC(=O)O)c3ccccc3n2C)c(CCC(=O)O)c2ccccc21 [Compound 37] |  | 3.3 | 
Cc1cccc2c(CCC(=O)O)c(SSc3[nH]c4c(C)cccc4c3CCC(=O)O)[nH]c12 [Compound 45, bis[7-methylindolyl-3-propanoic acid-(2)] disulfide] |  | 1.6 | 
Cn1c(S)c(C(=O)Nc2ccccc2)c2cccnc21 [Compound 19, N-phenyl (1-methyl-7-aza-2-thioxo-3-indolinyl)carboxamide] | 10 |  | 
CN1C(=S)C(CCC(=O)O)c2ccccc21 (stereo not drawn) [Compound 8, 3-(1-methyl-2-thioxo-3-indolinyl)propanoic acid] |  | 8.5 | 
CC(=O)c1c(SSc2c(C(C)=O)c3ccccc3n2C)n(C)c2ccccc12 [Compound 121, 2,2'-dithiobis(3-acetyl-1-methylindole)] |  | 5.6 | 
O=C(NCc1ccccc1)C(O)Cc1c(SSc2[nH]c3ccccc3c2CC(O)C(=O)NCc2ccccc2)[nH]c2ccccc12 (stereo not drawn) [Compound 64, 2,2'-dithiobis[α-hydroxy-N -(phenylmethyl)-1H-indole-3-propanamide]] |  | 29 | 
Cn1c([Se][Se]c2c(C(=O)OC(C)(C)C)c3ccccc3n2C)c(C(=O)OC(C)(C)C)c2ccccc21 [Compound 129, 2,2'-diselenobis [1-methyl-1H-indole-3-carboxylic acid, t-butyl ester]] | 31 |  | 
COC(=O)c1ccc(C(=O)c2c(SSc3c(C(=O)c4ccc(C(=O)OC)cc4)c4ccccc4n3C)n(C)c3ccccc23)cc1 [Compound 102, bis[3-(4'-carbomethoxybenzoyl)-1-methylindole-(2)]disulfide] |  | 6.1 | 
O=[N+]([O-])CCc1c(SSc2[nH]c3ccccc3c2CC[N+](=O)[O-])[nH]c2ccccc12 [Compound 49, 2,2'-dithiobis[3-(2-nitroethyl)indole]] |  |  | IC50 [1]: 84.1 µM
COC(=O)CCC1C(=S)N(C)c2ccccc21 (stereo not drawn) [Compound 11, methyl 3-(1-methyl-2-thioxo-3-indolinyl)propanoate] | 24 |  | 
O=C(Nc1ccccc1)c1c(SSc2[nH]c3ccccc3c2C(=O)Nc2ccccc2)[nH]c2ccccc12 [Compound 126, 2,2'-dithiobis [N-phenylindolyl-3-carboxamide]] | 60 |  | 
CNC(=O)c1c(SSc2[nH]c3ccccc3c2C(=O)NC)[nH]c2ccccc12 [Compound 127, 2,2'-dithiobis[N-methylindolinyl-3-carboxamide]] |  | 6.8 | 
O=C(CCC1C(=S)Nc2ccccc21)NCc1ccccc1 (stereo not drawn) [Compound 13, N-benzyl 3-(2-thioxo-3-indolinyl) propanamide] | 43 |  | 
COC(=O)c1ccc(NC(=O)c2c(SSc3c(C(=O)Nc4ccc(C(=O)OC)cc4)c4ccccc4n3C)n(C)c3ccccc23)cc1 [Compound 104, 2,2'-dithiobis [N-(4'-carbomethoxy)phenyl-1-methylindolyl-3-carboxamide]] | 20 |  | 
CC(=O)OC(Cc1c(SSc2[nH]c3ccccc3c2CC(OC(C)=O)C(=O)NCc2ccccc2)[nH]c2ccccc12)C(=O)NCc1ccccc1 (stereo not drawn) [Compound 63] |  | 60 | 
COC(=O)c1ccc(C(=O)C2C(=S)N(C)c3ccccc32)cc1 (stereo not drawn) [Compound 26, 3-(4'-carbomethoxybenzoyl) -1-methyl-2-indolinethione] |  |  | inhibition at 100 µM [2]: 5%
